The record followed here is patent US11051515B2, “3-acyl-benzamides and their use as herbicides” (Bayer Aktiengesellschaft, priority 2017, dated 2021).

Structures are written as SMILES.

For assay [1], the system named is ABUTH. As to the kind of experiment: Post-emergence action against ABUTH. The format is in vivo, Abutilon theophrasti. As to conditions: Abutilon theophrasti, 504 h; post-emergence, dosage 80 g/ha, visual assessment about 3 weeks after treatment vs untreated controls; read-out: Post-emergence action against ABUTH (herbicidal action in percent). The procedure, abridged:
(§1)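 Weeds grown in sandy loam in greenhouse, treated at one-leaf stage (2–3 weeks after sowing) with WP or EC formulations sprayed as aqueous suspension/emulsion at 600 to […] water with 0.2% wetting agent. Visual rating after about 3 weeks versus untreated controls, as % herbicidal action (100% = plants dead, 0% = like control).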

Assay [2] has as its system AMARE. Put plainly: Pre-emergence action against AMARE. It is filed as in vivo, Amaranthus retroflexus. As to conditions: Amaranthus retroflexus, 504 h; pre-emergence, dosage 320 g/ha, scored visually after 3 weeks vs untreated controls; read-out: Pre-emergence action against AMARE (herbicidal activity). The procedure, abridged: (§2)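 Seeds sown in sandy loam in wood-fiber pots and covered with soil. Greenhouse growth; visual damage scored after 3 weeks versus untreated controls (100% = dead, 0% = like control).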

The test system of assay [3] is ECHCG. Put plainly: Pre-emergence action against ECHCG. The format is in vivo, Echinochloa crus-galli. As to conditions: Echinochloa crus-galli, 504 h; pre-emergence, dosage 320 g/ha, scored visually after 3 weeks vs untreated controls; read-out: Pre-emergence action against ECHCG (herbicidal activity). The procedure, abridged:
as §2

The subject of assay [4] is AMARE. Put plainly: Post-emergence action against AMARE. The format is in vivo, Amaranthus retroflexus. As to conditions: Amaranthus retroflexus, 504 h; post-emergence, dosage 80 g/ha, visual assessment about 3 weeks after treatment vs untreated controls; read-out: Post-emergence action against AMARE (herbicidal action in percent). The procedure, abridged:
as §1

The test system of assay [5] is AVEFA. As to the kind of experiment: Post-emergence action against AVEFA. The format is in vivo, Avena fatua. As to conditions: Avena fatua, 504 h; post-emergence, dosage 80 g/ha, visual assessment about 3 weeks after treatment vs untreated controls; read-out: Post-emergence action against AVEFA (herbicidal action in percent). Put shortly:
as §1

Assay [6] has as its system SETVI. Put plainly: Post-emergence action against SETVI. The format is in vivo, Setaria viridis. Particulars: Setaria viridis, 504 h; post-emergence, dosage 80 g/ha, visual assessment about 3 weeks after treatment vs untreated controls; read-out: Post-emergence action against SETVI (herbicidal action in percent). The procedure, abridged: as §1
Assay [7] deals with LOLMU. As to the kind of experiment: Post-emergence action against LOLMU. As to conditions: Lolium multiflorum, 504 h, dosage 80 g/ha, visual assessment about 3 weeks after treatment vs untreated controls, read-out: Post-emergence action against LOLMU (herbicidal action in percent). It is filed as in vivo, Lolium multiflorum. As to the method: Seeds of monocotyledonous and dicotyledonous weed and crop plants are laid out in sandy loam soil in wood-fiber pots, covered with soil and cultivated in a greenhouse under good growth conditions. 2 to 3 weeks after sowing, the test plants are treated at the one-leaf stage. The compounds of the invention, formulated in the form of wettable powders (WP) or as emulsion concentrates (EC), are then sprayed onto the green parts of the plants in the form of an aqueous suspension or emulsion at a water application rate equating to […], with addition of 0.2% wetting agent. After the test plants have been left to stand in the greenhouse under optimal growth conditions for about 3 weeks, the action of the preparations is assessed visually in comparison to untreated controls (herbicidal action in percent (%): 100% activity=the plants have died, 0% activity=like control plants). […] At the same time, inventive compounds leave Gramineae crops such as barley, wheat, rye, millet/Sorghum, corn or rice virtually undamaged when applied post-emergence, even at high active ingredient dosages. In addition, some substances are also harmless to dicotyledonous crops such as soya, cotton, oilseed rape, sugar beet or potatoes. Some of the compounds according to the invention have high selectivity and are therefore suitable for controlling unwanted vegetation in agricultural crops by the post-emergence method. The data of Tables B18 to B34 below illustrate, in an exemplary manner, the […] herbicidal action of the compounds according to the invention, the herbicidal activity being stated in percent.

Assay [8] relates to PHBPU. As to the kind of experiment: Pre-emergence action against PHBPU. The format is in vivo, Pharbitis purpurea. As to conditions: Ipomoea purpurea, 504 h; Dosage 320 g/ha, pre-emergence. The procedure, abridged: as §2
For assay [9], the system named is AVEFA. As to the kind of experiment: Pre-emergence action against AVEFA. It is filed as in vivo, Avena fatua. Particulars: Avena fatua, 504 h, dosage 320 g/ha, scored visually after 3 weeks vs untreated controls, read-out: Pre-emergence action against AVEFA (herbicidal activity). Put shortly: as §2
For assay [10], the system named is STEME. As to the kind of experiment: Post-emergence action against STEME. It is filed as in vivo, Stellaria media. Particulars: Stellaria media, 504 h; post-emergence, dosage 80 g/ha. The procedure, abridged:
as §1

Assay [11] deals with CYPES. Put plainly: Pre-emergence action against CYPES. The format is in vivo, Cyperus esculentus. Particulars: Cyperus esculentus, 504 h; pre-emergence, dosage 320 g/ha, scored visually after 3 weeks vs untreated controls; read-out: Pre-emergence action against CYPES (herbicidal activity). The procedure, abridged: as §2
The subject of assay [12] is SETVI. As to the kind of experiment: Pre-emergence action against SETVI. As to conditions: Setaria viridis, 504 h; pre-emergence, dosage 320 g/ha, scored visually after 3 weeks vs untreated controls; read-out: SETVI (Table B8, pre-emergence herbicidal activity). It is filed as in vivo, Setaria viridis. The procedure, abridged:
as §2

Assay [13] concerns VERPE. Put plainly: Post-emergence action against VERPE. The format is in vivo, Veronica persica. Particulars: Veronica persica, 504 h, dosage 80 g/ha. Put shortly:
as §1

The test system of assay [14] is ECHCG. Put plainly: Post-emergence action against ECHCG. It is filed as in vivo, Echinochloa crus-galli. As to conditions: Echinochloa crus-galli, 504 h; post-emergence, dosage 80 g/ha, visual assessment about 3 weeks after treatment vs untreated controls; read-out: Post-emergence action against ECHCG (herbicidal action in percent). The procedure, abridged:
as §1

Assay [15] deals with VIOTR. As to the kind of experiment: Pre-emergence action against VIOTR. It is filed as in vivo, Viola tricolor. Particulars: Viola tricolor, 504 h; Dosage 320 g/ha, pre-emergence. The procedure, abridged: as §2
Assay [16] has as its system ABUTH. As to the kind of experiment: Pre-emergence action against ABUTH. It is filed as in vivo, Abutilon theophrasti. Particulars: Abutilon theophrasti, 504 h; pre-emergence, dosage 320 g/ha, scored visually after 3 weeks vs untreated controls; read-out: Pre-emergence action against ABUTH (herbicidal activity). The procedure, abridged: as §2
Assay [17] concerns VIOTR. As to the kind of experiment: Post-emergence action against VIOTR. The format is in vivo, Viola tricolor. Particulars: Viola tricolor, 504 h; post-emergence, dosage 80 g/ha. Put shortly: as §1
Assay [18] deals with PHBPU. Put plainly: Post-emergence action against PHBPU. It is filed as in vivo, Pharbitis purpurea. Particulars: Ipomoea purpurea, 504 h; post-emergence, dosage 80 g/ha. The procedure, abridged:
as §1

In assay [19] the test system is ALOMY. As to the kind of experiment: Pre-emergence action against ALOMY. The format is in vivo, Alopecurus myosuroides. Particulars: Alopecurus myosuroides, 504 h; dosage 320 g/ha; pre-emergence; scored visually after 3 weeks vs untreated controls; 100% = plants have died, 0% = like control plants; read-out: Pre-emergence action against ALOMY (herbicidal activity in percent). The procedure, abridged: as §2

Assay [20] has as its system ALOMY. Put plainly: Post-emergence action against ALOMY. Particulars: Alopecurus myosuroides, 504 h; Dosage 80 g/ha, post-emergence. It is filed as in vivo, Alopecurus myosuroides. The procedure, abridged: as §1
Assay [21] relates to MATIN. As to the kind of experiment: Post-emergence action against MATIN. As to conditions: Tripleurospermum inodorum, 504 h; post-emergence, dosage 80 g/ha, visual assessment about 3 weeks after treatment vs untreated controls; read-out: Post-emergence action against MATIN (herbicidal action in percent). The format is in vivo, Matricaria inodora. Put shortly:
as §1

Assay [22] has as its system MATIN. As to the kind of experiment: Pre-emergence action against MATIN. The format is in vivo, Matricaria inodora. As to conditions: Tripleurospermum inodorum, 504 h; Dosage 320 g/ha, pre-emergence. The procedure, abridged:
as §2

Assay [23] concerns CYPES. As to the kind of experiment: Post-emergence action against CYPES. It is filed as in vivo, Cyperus esculentus. Particulars: Cyperus esculentus, 504 h; post-emergence, dosage 80 g/ha, visual assessment about 3 weeks after treatment vs untreated controls; read-out: Post-emergence action against CYPES (herbicidal action in percent). Put shortly: as §1
Assay [24] relates to VERPE. Put plainly: Pre-emergence action against VERPE. It is filed as in vivo, Veronica persica. As to conditions: Veronica persica, 504 h; Dosage 320 g/ha, pre-emergence. Put shortly:
as §2

For assay [25], the system named is POLCO. As to the kind of experiment: Post-emergence action against POLCO. It is filed as in vivo, Polygonum convolvulus. Particulars: Fallopia convolvulus, 504 h; post-emergence, dosage 80 g/ha. Put shortly:
as §1

With `Cc1c(C(=O)Nc2nnnn2C)ccc(C(F)(F)F)c1C(=O)C1CC1` [1-18, 3-(cyclopropylcarbonyl)-2-methyl-N-(1-methyl-1H-tetrazol-5-yl)-4-(trifluoromethyl)benzamide], the pest or weed control at 80 g/ha in assay [1] worked out at 80%; in assay [4], 90%; in [5], 100%; in assay [6], 100%; in assay [7] it was 90%; in assay [10], 100%. Besides, the pest or weed control at 80 g/ha in assay [13] was 100%; in [14], 90%; in [17], 100%; in assay [18] it was 100%; in [20], 100%; in assay [21], 100%. Besides, the pest or weed control at 80 g/ha in [23] was determined as 90%. In addition, the pest or weed control at 320 g/ha came out at 100% in assay [2]; 100% in assay [3]; 90% in assay [8]; 100% in [9]; 90% in [11]; 100% in assay [12]. The pest or weed control at 320 g/ha in assay [15], in assay [16], in assay [19] and in assay [22] was 100% each time.
Consider `CCC(=O)c1c(C(F)(F)F)ccc(C(=O)Nc2nnnn2C)c1Cl` [1-138], for which the pest or weed control at 80 g/ha was found to be 80% in assay [1]; 80% in [4]; 100% in assay [5]; 90% in assay [6]; 100% in assay [7]; 100% in assay [10]. Besides, the pest or weed control at 80 g/ha is 90% in [13]; 90% in [14]; 100% in assay [17]; 100% in [18]; 80% in assay [25]; 100% in assay [20]. In addition, the values for the pest or weed control at 80 g/ha in assay [21] and in [23] were 100% and 90%, respectively. The pest or weed control at 320 g/ha in [2] was 100%; in assay [3], 100%; in [8], 90%; in [9], 100%; in assay [11], 100%; in assay [24] it was 100%. The pest or weed control at 320 g/ha in [12], in assay [15], in assay [16], in assay [19] and in assay [22] was 100% each time.
